Laboratory results taken from PubChem BioAssay (NCI).
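Cells were grown in 96-well plates and exposed to each compound for 48 hours at five concentrations; endpoints were interpolated linearly between bracketing concentrations, or set to the highest concentration if not reached. Abbreviation: GI50, concentration required for 50% inhibition of growth. Definition used: TGI = concentration required for complete inhibition of growth.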

Legend:
Assay in all cases: NCI-60 cell line screen, 48 h
RPMI-8226 leukemia = test system: RPMI-8226 leukemia
NCI-H226 lung = test system: NCI-H226 lung
A498 renal = test system: A498 renal
HT29 colon = test system: HT29 colon
SNB-75 CNS = test system: SNB-75 CNS
SF-268 CNS = test system: SF-268 CNS
HCC-2998 colon = test system: HCC-2998 colon
M14 melanoma = test system: M14 melanoma
HCT-116 colon = test system: HCT-116 colon
MALME-3M melanoma = test system: MALME-3M melanoma
SK-MEL-28 melanoma = test system: SK-MEL-28 melanoma
HCT-15 colon = test system: HCT-15 colon
A549 NSCLC = test system: A549 NSCLC
UACC-62 melanoma = test system: UACC-62 melanoma
MCF7 breast = test system: MCF7 breast
OVCAR-5 ovarian = test system: OVCAR-5 ovarian
SK-OV-3 ovarian = test system: SK-OV-3 ovarian
CCRF-CEM leukemia = test system: CCRF-CEM leukemia
NCI/ADR-RES ovarian = test system: NCI/ADR-RES ovarian
SN12C renal = test system: SN12C renal
MOLT-4 leukemia = test system: MOLT-4 leukemia
ACHN renal = test system: ACHN renal
OVCAR-4 ovarian = test system: OVCAR-4 ovarian
PC-3 prostate = test system: PC-3 prostate
UO-31 renal = test system: UO-31 renal
TK-10 renal = test system: TK-10 renal
786-0 renal = test system: 786-0 renal
HOP-62 NSCLC = test system: HOP-62 NSCLC
OVCAR-3 ovarian = test system: OVCAR-3 ovarian
SF-295 CNS = test system: SF-295 CNS
MDA-MB-231 breast = test system: MDA-MB-231 breast
HOP-92 NSCLC = test system: HOP-92 NSCLC
U251 CNS = test system: U251 CNS
T-47D breast = test system: T-47D breast
SK-MEL-2 melanoma = test system: SK-MEL-2 melanoma
OVCAR-8 ovarian = test system: OVCAR-8 ovarian
NCI-H23 lung = test system: NCI-H23 lung
CAKI-1 renal = test system: CAKI-1 renal
COLO 205 colon = test system: COLO 205 colon
HS 578T breast = test system: HS 578T breast
MDA-MB-435 = test system: MDA-MB-435
NCI-H522 lung = test system: NCI-H522 lung
SW-620 colon = test system: SW-620 colon
SR leukemia = test system: SR leukemia
EKVX NSCLC = test system: EKVX NSCLC
HL-60(TB) leukemia = test system: HL-60(TB) leukemia
LOX IMVI melanoma = test system: LOX IMVI melanoma
NCI-H460 lung = test system: NCI-H460 lung
RXF 393 renal = test system: RXF 393 renal
KM12 colon = test system: KM12 colon
K-562 leukemia = test system: K-562 leukemia
SK-MEL-5 melanoma = test system: SK-MEL-5 melanoma
BT-549 breast = test system: BT-549 breast
SNB-19 CNS = test system: SNB-19 CNS
IGROV1 ovarian = test system: IGROV1 ovarian
DU-145 prostate = test system: DU-145 prostate
UACC-257 melanoma = test system: UACC-257 melanoma

## Cc1ccc(/C=C2\COc3ccc(O)c(O)c3C2=O)cc1
RPMI-8226 leukemia
  GI50: 252 nM
  TGI: 818 nM
NCI-H226 lung
  GI50: 2130 nM
  TGI: 6.24 µM
A498 renal
  GI50: 249 nM
  TGI: 1950 nM
HT29 colon
  GI50: 2780 nM
  TGI: 9.05 µM
SNB-75 CNS
  GI50: 322 nM
  TGI: 3.48 µM
SF-268 CNS
  GI50: 1120 nM
  TGI: 3.35 µM
HCC-2998 colon
  GI50: 1690 nM
  TGI: 3.28 µM
M14 melanoma
  GI50: 292 nM
  TGI: 1060 nM
HCT-116 colon
  GI50: 1280 nM
  TGI: 2930 nM
MALME-3M melanoma
  GI50: 909 nM
  TGI: 3.15 µM
SK-MEL-28 melanoma
  GI50: 933 nM
  TGI: 2830 nM
HCT-15 colon
  GI50: 352 nM
  TGI: 6.41 µM
A549 NSCLC
  GI50: 2330 nM
  TGI: 11.5 µM
UACC-62 melanoma
  GI50: 407 nM
  TGI: 1650 nM
MCF7 breast
  GI50: 375 nM
  TGI: 9.76 µM
OVCAR-5 ovarian
  GI50: 1750 nM
  TGI: 3.98 µM
SK-OV-3 ovarian
  GI50: 395 nM
  TGI: 35.1 µM
CCRF-CEM leukemia
  GI50: 265 nM
  TGI: 1480 nM
NCI/ADR-RES ovarian
  GI50: 343 nM
  TGI: > 100 µM
SN12C renal
  GI50: 370 nM
  TGI: 2330 nM
MOLT-4 leukemia
  GI50: 403 nM
  TGI: > 29.6 µM
ACHN renal
  GI50: 639 nM
  TGI: 2000 nM
OVCAR-4 ovarian
  GI50: 1470 nM
  TGI: 4.96 µM
PC-3 prostate
  GI50: 505 nM
  TGI: 3.74 µM
UO-31 renal
  GI50: 465 nM
  TGI: 1800 nM
TK-10 renal
  GI50: 1470 nM
  TGI: 3.44 µM
786-0 renal
  GI50: 555 nM
  TGI: 2490 nM
HOP-62 NSCLC
  GI50: 1440 nM
  TGI: 6.64 µM
OVCAR-3 ovarian
  GI50: 386 nM
  TGI: 1400 nM
SF-295 CNS
  GI50: 2040 nM
  TGI: 9.64 µM
MDA-MB-231 breast
  GI50: 340 nM
  TGI: 3.78 µM
HOP-92 NSCLC
  GI50: 887 nM
  TGI: 5.77 µM
U251 CNS
  GI50: 922 nM
  TGI: 2290 nM
T-47D breast
  GI50: 951 nM
  TGI: 6.94 µM
SK-MEL-2 melanoma
  GI50: 555 nM
  TGI: 3.65 µM
OVCAR-8 ovarian
  GI50: 404 nM
  TGI: > 100 µM
NCI-H23 lung
  GI50: 1450 nM
  TGI: 3.8 µM
CAKI-1 renal
  GI50: 765 nM
  TGI: 2200 nM
COLO 205 colon
  GI50: 2000 nM
  TGI: 3.95 µM
HS 578T breast
  GI50: 362 nM
  TGI: > 26.4 µM
MDA-MB-435
  GI50: 233 nM
  TGI: 764 nM
NCI-H522 lung
  GI50: 185 nM
  TGI: 461 nM
SW-620 colon
  GI50: 854 nM
  TGI: 3.11 µM
SR leukemia
  GI50: 358 nM
  TGI: > 100 µM
EKVX NSCLC
  GI50: 1280 nM
  TGI: 4.14 µM
HL-60(TB) leukemia
  GI50: 421 nM
  TGI: 2140 nM
LOX IMVI melanoma
  GI50: 329 nM
  TGI: 1340 nM
NCI-H460 lung
  GI50: 1840 nM
  TGI: 5 µM
RXF 393 renal
  GI50: 372 nM
  TGI: 1160 nM
KM12 colon
  GI50: 838 nM
  TGI: 3 µM
K-562 leukemia
  GI50: 329 nM
  TGI: > 100 µM
SK-MEL-5 melanoma
  GI50: 320 nM
  TGI: 1260 nM
BT-549 breast
  GI50: 585 nM
  TGI: 2640 nM
SNB-19 CNS
  GI50: 1320 nM
  TGI: 3.27 µM
IGROV1 ovarian
  GI50: 559 nM
  TGI: 2620 nM
DU-145 prostate
  GI50: 394 nM
  TGI: 1710 nM
UACC-257 melanoma
  GI50: 1550 nM
  TGI: 5.38 µM
